Measurements as given in US6602499B1, “Combination viral-based and gene-based therapy of tumors” (priority 1998, dated 2003).

Key:
[1] = test system: 9L cells; assay: Viral yields from infected 9L cells treated with cyclophosphamide, plaque assay on Vero cells; assay type: cell-based, rat; conditions: 9L cells infected with rRp450 in presence or absence of cyclophosphamide, three days
Description: Three day later, cells and supernatants were harvested and virus was harvested by freeze-thawing three times. Plaque-assays on Vero cells were performed to measure viral yields. Assay was performed in triplicate plates.
Cell culture studies: Cells were usually plated the day before viral infection. The following day, 3 random dishes were trypsinized and cell numbers were enumerated using a Coulter counter. Based on the mean cell number, the viral mutant was added to achieve the desired multiplicity of infection (MOI). Experiments were performed in triplicate dishes.
CPA: CPA was added at the start of the incubation period at a concentration of 250 Um.

[2] = test system: human U87 tumors; assay: Subcutaneous human U87 glioma tumors in athymic mice, intratumoral injection; assay type: in vivo; conditions: rRp450 2.5×10^8 pfus plus vehicle, or 1 mg CPA alone
Excerpt: FIG. 6B is a graph depicting the in vivo augmentation of rRp450's oncolytic effect by CPA on U87 tumors. Human U87 tumors were inoculated with CPA (closed circles), rRp450 plus vehicle (open circles), or rRp450 plus CPA (dark squares). The black vertical arrows indicate the times of injection (days 1, 2, 4, and 6). Values represent the average tumor volume from 5 mice per group. Error bars represent the standard error of the mean. For this experiment, differences were statistically significant at the 22, 26 and 29 day time point (P<0.05, one way analysis of variance).
In a similar experiment, visible subcutaneous nodules (the range of volumes was 10-135 mm^3 and the average volume was 74 mm^3) were established by the injection of 10^6 human U87 glioma cells into the subcutaneous flank of athymic mice (NCY/sed, nu/nu; MGH breeding colony). Thirty days later the tumors were treated with intratumoral injections, using a Hamilton syringe, of 1 mg CPA in 125 ul of medium, rRp450 (2.5×10^8 pfus) plus vehicle in 125 ul of medium, or rRp450 (2.5×10^8 pfus) plus 1 mg CPA in 125 ul of medium. Tumor inoculations were repeated on day 2, day 4 and day 6. Five mice were used per treatment group. […]

[3] = test system: Vero cells; assay type: cell-based; conditions: CPA at concentrations up to 200 uM
[4] = test system: rRp450- and hrR3-infected 9L cells; assay: Viral protein synthesis (35S-methionine pulse, autoradiography) in infected 9L cells; assay type: cell-based, rat; conditions: 9L cells grown with 250 uM CPA or 100 ng/ml ganciclovir for 30 hours, then infected with rRp450 or hrR3 at MOI=3
Description: FIG. 4 is an autoradiograph depicting the effect of CPA on rRp450 protein synthesis in infected 9L tumor cells. 9L tumor cells were grown in the presence of CPA (lanes 3 and 6), 100 ng/ml ganciclovir (lanes 2 and 5), or vehicle (lanes 1 and 4). Cells from each group were then infected with rRp450 (lanes 4-6) or hrR3 (lanes 1-3). After pulsing with ^35S-methionine, cell lysates were separated by electrophoresis. The designations, 6,5,8, gB, and pgB indicate the viral ICP6-lacZ fusion, ICP5, ICP8, and glycoprotein B, respectively. The size of molecular weight markers is indicated on the left side of the blot.
Measurement of Viral Protein Synthesis: 9L tumor cells were grown in the presence of 250 uM CPA, 100 ng/ml ganciclovir, or vehicle for 30 hours. Cells from each group were then infected with rRp450 or hrR3 at an MOI=3. Control plates were infected with a mock viral preparation. Eighteen hours later, medium was removed and fresh medium containing 20 uCi of ^35S-methionine was added. Cells were then scraped and harvested two hours later. Cell pellets were resuspended in sodium phosphate, pH=7.3. in 0.9% sodium chloride in the presence of protease inhibitors and then sheared by passage through a 28 and a ½ gauge needle. Protein concentrations were calculated by using a commercially available kit (BioRad). […]

SMILES | Effect of CPA on replication of rRp450 [1] | Growth of U87 tumors, agent alone [2] | Inhibition of plaque production [3] | Effect of drug on viral protein synthesis [4]
O=P1(N(CCCl)CCCl)NCCCO1 (stereo not drawn) [CPA, cyclophosphamide] | did not significantly inhibit replication of rRp450 | relatively rapid | did not inhibit plaque production | did not appear to significantly inhibit viral protein synthesis
Nc1nc(O)c2ncn(COC(CO)CO)c2n1 [ganciclovir] | – | – | did | inhibited the synthesis of viral proteins
